In patent publication US8637536B2, “Pyrimidinone compounds for use in the treatment of diseases or conditions mediated by Lp-PLA2” (Glaxo Group Limited, priority 2010, dated 2014):
Read-outs that look alike come from different tables or passages of the source.

Columns and labels:
[1] = system: proinflammatory (M1) and anti-inflammatory (M2) markers in macrophages; test: EAE model (MBP immunization), ex vivo realtime PCR analysis of M1 and M2 macrophage markers; type: in vivo, rats; settings: macrophages ex vivo (splenic, day 13 post MBP-immunization; CNS infiltrating cells), compound treated vs control
Description: A further study was carried out to study the impact of Lp-PLA2 inhibitors on modulating M1/M2 imbalance. In this study, rats were induced to develop experimental autoimmune encephalomyelitis (EAE) by immunization with myelin basic protein (MBP) antigen and treated with a known Lp-PLA2 inhibitor: 549-Methoxy-4-oxo-6,7-dihydro-4H-pyrimido[6,1-a]isoquinolin-2-yl)oxy)-2-(3-(trifluoromethyl)phenoxy)benzonitrile (See PCT application no. PCT/CN2011/001597) For preventive treatment, compound administration started at day 0 whereas it started at 7 day in therapeutic treatment. Rats were subsequently monitored for symptoms of EAE. Rats were immunized with MBP to develop EAE and symptoms were monitored daily. Plasma Lp-PLA2 activity and LysoPC concentration were determined at different time points through the course of EAE.
Ex vivo analysis of proinflammatory (M1) and anti-inflammatory (M2) markers in control and compound treated EAE […]. Splenic macrophages were harvested at day 13 post MBP-immunization and assayed for expression of a variety of markers by realtime PCR. CNS infiltrating cells were harvested and macrophages were analyzed for expression of M1 and M2 markers by realtime PCR.

[2] = target: T1, recombinant human Lp-PLA2 (Homo sapiens, UniProt Q13093); test: Recombinant human Lp-PLA2 assay (rhLp-PLA2, PED6 assay); type: biochemical
T1 sequence (Q13093 22-441): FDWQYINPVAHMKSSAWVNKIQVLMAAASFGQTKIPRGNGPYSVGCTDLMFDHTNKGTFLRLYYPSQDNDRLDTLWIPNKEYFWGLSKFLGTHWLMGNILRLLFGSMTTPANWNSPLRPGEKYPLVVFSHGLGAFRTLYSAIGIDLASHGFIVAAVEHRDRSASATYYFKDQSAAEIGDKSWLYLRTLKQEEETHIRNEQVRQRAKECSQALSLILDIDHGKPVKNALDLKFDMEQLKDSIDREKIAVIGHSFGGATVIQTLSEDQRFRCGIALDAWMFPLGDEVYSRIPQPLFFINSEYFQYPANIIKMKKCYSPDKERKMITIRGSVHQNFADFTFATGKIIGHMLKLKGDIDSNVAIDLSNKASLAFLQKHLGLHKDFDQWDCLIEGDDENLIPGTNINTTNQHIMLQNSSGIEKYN

[3] = target: T2, Lp-PLA2 from plasma (pooled human plasma) (Homo sapiens, UniProt Q13093); test: Lp-PLA2 human plasma assay (Thio-PAF assay); type: biochemical; settings: text thresholds, read-out: pIC50 values in the thio-PAF assay (converted)
T2 construct: 8 μL pooled human plasma; from tissue; host or cells: pooled human plasma
T2 sequence (Q13093 22-441): T1 sequence (Q13093 22-441)
In short: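 Pooled human plasma preincubated 30 min with compound, then thio-PAF substrate with NEM and CPM added in pH 7.4 HEPES/NaCl/CHAPS buffer; reaction 2 min at room temperature, quenched with 5% TFA, fluorescence read at ex 380/em 485 after 40 min; pIC50 from curve fitting.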

[4] = text thresholds, upper limit for pIC50 in this assay is 9.3, read-out: pIC50 values in the PED6 assay (converted)
[5] = upper limit for pIC50 obtained in this PED6 assay is 9.3, read-out: rhLp-PLA2 (PED6 assay) (pIC50) (converted)

| SMILES | M1 markers (expression by realtime PCR) [1] | M2 markers (expression by realtime PCR) [1] | IC50 [2, 4] | IC50 [2, 5] | IC50 [3] |
| --- | --- | --- | --- | --- | --- |
| COc1ccc2c(c1)CCn1c-2cc(Oc2ccc(Oc3cccc(C(F)(F)F)c3)c(C#N)c2)nc1=O | decrease | increase | – | – | – |
| O=c1ccc(Cc2c[nH]c(NCCc3ccc(Oc4ccc(Cl)c(C(F)(F)F)c4)cc3)nc2=O)c[nH]1 [E212, 2-{2-[4-(4-Chloro-3-trifluoromethyl-phenoxy)-phenyl]-ethylamino}-5-(6-oxo-1,6-dihydro-pyridin-3-ylmethyl)-1H-pyrimidin-4-one] | – | – | ≤ 10 nM | 6.31 nM | ≤ 100 nM |
| O=c1nc(NCCc2ccc(Oc3ccc(Cl)c(C(F)(F)F)c3)cc2)[nH]cc1Cc1ccnnc1 [E214, 2-{2-[4-(4-chloro-3-trifluoromethyl-phenoxy)-phenyl]ethylamino}-5-pyridazin-4-ylmethyl-1H-pyrimidin-4-one] | – | – | ≤ 10 nM | – | ≤ 100 nM |
| O=c1cc(Cc2c[nH]c(NCCc3ccc(Oc4ccc(Cl)c(C(F)(F)F)c4)cc3)nc2=O)cc[nH]1 [E216, 2-{2-[4-(4-Chloro-3-trifluoromethyl-phenoxy)-phenyl]-ethylamino}-5-(2-oxo-1,2-dihydro-pyridin-4-ylmethyl)-1H-pyrimidin-4-one] | – | – | ≤ 10 nM | 3.16 nM | ≤ 1000 nM |
